Laboratory results: patent publication US12410141B2, “Anti-cancer spirocyclic-guanidine compounds and uses thereof” (The Johns Hopkins University, priority 2020, dated 2025)

Key:
[1] = Solubility compared with RA190; type: physicochemical; conditions: compared with prototypic RPN13 inhibitor RA190
HCT116 = experiment: MTT cytotoxicity assay, HCT116; type: cell-based; conditions: HCT116, colon, 72 hr, read-out: IC50, cell killing
Procedure: (§1) All cell lines were obtained from the American Type Culture Collection (ATCC) and cultured in the specified medium supplemented with 10% fetal bovine serum, 100 IU/mL penicillin, and 100 μg/mL streptomycin at 37° C. in a humidified 5% CO2/95% air incubator. To assess drug cytotoxicity cells were seeded at 2,500 cells/well (10,000 cells/well for MM lines and primary cells) in 100 μL medium in 96-well plate. […]
(§2) It was examined whether the RPN13 inhibitor, RA475, was cytotoxic for cancer cell lines using the MTT assay.

[2] = target: T1, 42 kDa cellular protein, consistent with RPN13 (Homo sapiens, UniProt Q16186); experiment: Up284B competitive labeling assay in SKOV3 or ES2 cell lysates; type: binding; conditions: pre-cleared SKOV3 or ES2 lysates, 45 min at 4° C., then 5 μM Up284B
T1 construct: endogenous in cells; host or cells: SKOV3 or ES2 cell lysates, pre-cleared with streptavidin-coated beads
T1 sequence (Q16186 whole entry): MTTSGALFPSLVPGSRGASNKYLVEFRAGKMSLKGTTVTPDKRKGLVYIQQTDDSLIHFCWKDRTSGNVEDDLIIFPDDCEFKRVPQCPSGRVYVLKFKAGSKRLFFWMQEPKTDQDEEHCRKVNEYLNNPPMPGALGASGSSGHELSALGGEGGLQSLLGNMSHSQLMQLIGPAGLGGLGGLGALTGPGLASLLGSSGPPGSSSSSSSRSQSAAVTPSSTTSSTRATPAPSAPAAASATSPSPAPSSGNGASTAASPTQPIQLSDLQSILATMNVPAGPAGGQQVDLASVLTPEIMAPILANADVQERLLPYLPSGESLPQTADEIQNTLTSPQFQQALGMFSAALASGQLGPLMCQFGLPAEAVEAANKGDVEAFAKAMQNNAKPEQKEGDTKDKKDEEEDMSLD
Procedure: (§3) Clarified cell lysate (40 ug/sample) in MPER buffer was pretreated with streptavidin-coated magnetic beads for 45 min at 4° C. to deplete non-specific biotinylated proteins in the cell lysate. […] Next, the samples were mixed with Laemmli sample buffer (BioRad) and boiled for 5 min. The proteins were separated using a 4-15% Bio-Rad Mini-PROTEAN SDS-PAGE gel (1 hr at 100 V), and transferred to PVDF membrane overnight at 4° C. (24 V). The membrane was blocked with 5% BSA in PBST for 1 hr at RT and washed for 20 minutes (3× with PBST). Then the membrane was probed with HRP-streptavidin (1:10,000 in PBST) for 1 hr at RT, washed for 30 min (3× with PBST), and developed using HyGLO chemiluminescent detection reagent (Denville) for biotin detection.
Briefly SKOV3 or ES2 cell lysates were first pre-cleared with streptavidin-coated beads to deplete endogenous biotinylated proteins. The pre-cleared lysates were then divided into equal aliquots. […] The lysates were then boiled in gel sample buffer, separated by SDS-PAGE, and transferred to a PVDF membrane.

HeLa = experiment: MTT cytotoxicity assay, HeLa; type: cell-based; conditions: cervical, 72 hr, read-out: IC50, cell killing
Procedure: as §1, §2

MCF7 = experiment: MTT cytotoxicity assay, MCF7; type: cell-based; conditions: MCF7, breast, 72 hr, read-out: IC50, cell killing
Procedure: as §1, §2

PEA2 = experiment: MTT cytotoxicity assay, PEA2; type: cell-based; conditions: PEA2, ovarian, 72 hr, read-out: IC50, cell killing
Procedure: as §1, §2

PACS = experiment: MTT cytotoxicity assay, PACS; type: cell-based; conditions: ovarian (mouse), 72 hr, read-out: IC50, cell killing
Procedure: as §1, §2

[3] = tested on: high molecular weight polyubiquitinated proteins in SKOV3 cells; experiment: Western blot for polyubiquitinated proteins, SKOV3 cells; type: cell-based; conditions: 12 hr, Up284 and RA475 0.5 and 1 μM, RA190 1 μM
Procedure: (§4) Cell lysate (10-20 μg total protein) prepared in MPER (Pierce) from each sample was subjected to SDS-PAGE, transferred to PVDF membranes and analyzed by Western blot using antibodies specific for ubiquitin (P4D1, sc-8017, Santa Cruz), or after stripping antibody for actin (#66009, Protein Tech Group), at the dilutions recommended by the manufacturers, and for secondary antibodies either peroxidase-linked anti-mouse IgG or anti-rabbit IgG (GE Healthcare UK Ltd) were utilized at the recommended dilution. The blots were developed using HyGLO chemiluminescent detection reagent (Denville).
Like RA190, RA475 was designed to be an inhibitor of upstream 19S RP proteasome function. […] Treatment with the same doses of Up284 (0.5 and 1 μM) or 1 μM RA190 provided positive controls, and vehicle alone (DMSO) was used as the negative control. At the end of the incubation, attached cells were lysed using MPER buffer according to the manufacturer's protocol. The lysates were subjected to Western blot analysis using antibody to ubiquitin, and then stripped and re-probed with actin antibody to provide a loading control (FIG. 5).
(§5) Proteasome inhibitors cause a rapid accumulation of polyUb proteins that is associated with unresolved UPR stress and the induction of apoptosis. Since RA475 is cytotoxic to ovarian cancer cells (Table 1), and induces such a rapid accumulation of polyUb proteins (FIG. 5), it was examined whether RA475 also triggered apoptosis. SKOV3 cells (FIG. 5A) were treated with Up284 (0.5 μM and 1 μM), 1 μM RA190, RA475 (0.5 μM and 1 μM) or vehicle alone (DMSO) and then cultured for 12 hr. OVCAR3 cells (FIG. 5B) were treated with Up284 (0.5 μM), Bortezomib (Bz, 0.25 μM), Ixazomib (Iz, 0.25 μM), RA475 (0.5 μM and 1 μM) or vehicle alone (DMSO). The attached cells were harvested and their lysates were subjected to Western blot analysis, first probed with antibody to ubiquitin and then to actin.

HCC1806 = experiment: MTT cytotoxicity assay, HCC1806; type: cell-based; conditions: HCC1806, breast, 72 hr, read-out: IC50, cell killing
Procedure: as §1, §2

[4] = tested on: 4T1 cells stably expressing 4UbFL; experiment: 4UbFL proteasome reporter, 4T1 cells; type: cell-based; conditions: 4 hr treatment, IVIS imager
Procedure: Data are presented as IVIS image (FIG. 8A) and bioluminescence units (FIG. 8B).
4T1 and HCC1806 cells were transfected with 4UbFL plasmid using TransIT2020 transfection reagent for a period of 48 hrs and cells were selected using G418 antibiotic from single colonies. Selected cells were seeded in a 24-well plate (50,000/well) and incubated for 18 h at 37° C. in an incubator. Next, cells were treated with compounds for the period of 4 hr and Luciferin was added (50 uL each well, 7.8 mg/mL) and imaged through an IVIS200 instrument and plotted as a bioluminescent value or fold increase to DMSO control.

SUM149 = experiment: MTT cytotoxicity assay, SUM149; type: cell-based; conditions: SUM149, breast, 72 hr, read-out: IC50, cell killing
Procedure: as §1, §2

[5] = tested on: high molecular weight polyubiquitinated proteins in OVCAR3 cells; experiment: Western blot for polyubiquitinated proteins, OVCAR3 cells; type: cell-based; conditions: RA475 0.5 μM and 1 μM
Procedure: as §4, §5

OVCAR3 = experiment: MTT cytotoxicity assay, OVCAR3; type: cell-based; conditions: OVCAR3, ovarian, 72 hr, read-out: IC50, cell killing
Procedure: as §1, §2

42 kDa RPN13 = target: T2, 42 kDa RPN13 (Homo sapiens, UniProt Q16186); experiment: RA190B competitive labeling assay in ES2 cell lysate; type: binding; conditions: ES2 cell lysate pre-incubated 45 min at 4° C. (bortezomib or Up compounds 5 μM), then RA190B 20 μM
T2 construct: endogenous in cells; host or cells: ES2 cell lysate (clarified, in MPER buffer)
T2 sequence (Q16186 whole entry): as above
Procedure: as §3
ES2 cell lysates were incubated with 20 μM RA190B for 45 min at 4° C., and then separated by SDS-PAGE, transferred to a PVDF membrane.

| SMILES | solubility relative to RA190 [1] | IC50 (HCT116) | competition with binding of Up284B probe to RPN13 [2] | IC50 (HeLa) | IC50 (MCF7) | IC50 (PEA2) | IC50 (PACS) | accumulation of polyUb proteins [3] | IC50 (HCC1806) | bioluminescence of 4UbFL reporter [4] | IC50 (SUM149) | accumulation of high molecular weight polyubiquitinated proteins [5] | IC50 (OVCAR3) | competition with binding of RA190B to the 42 kDa RPN13 (42 kDa RPN13) |
| --- | --- | --- | --- | --- | --- | --- | --- | --- | --- | --- | --- | --- | --- | --- |
| Cl.Cl.N#Cc1ccc(/C=C2/C(=O)/C(=C/c3ccc(C#N)cc3)C23CCN(C(=N)N)CC3)cc1 [RA475] | better solubility | 430 nM | dose-dependently competed | 213 nM | 742 nM | 356 nM | 581 nM | very significant increase in a dose-dependent manner | 113 nM | dose-dependent increase | 100 nM | triggers the accumulation | 190 nM | – |
| N#Cc1ccc(/C=C2/C(=O)/C(=C/c3ccc(C#N)cc3)C23CCNCC3)cc1 [Up284, reference compound] | – | – | – | – | – | – | – | profound accumulation | – | – | – | – | – | competed |
